In patent publication US12703729B2, “GIP agonist compounds and methods” (Zealand Pharma A/S, priority 2014, dated 2026):
Starred links: 1 amine or outer side, 2 acyl side, 3 side chain; linkers in the order of their positions; H or OH if unused. Non-standard residues stand in square brackets, D forms with d. Residues, ends and D or L forms follow the SMILES beside them. Groups on a side chain read outwards from the residue. *: point of attachment. C20 diacid = O=C(O)CCCCCCCCCCCCCCCCCCC(=O)*; γGlu = O=C(O)[C@H](CCC(=O)[*:2])N[*:1]; Palmitoyl = CCCCCCCCCCCCCCCC(=O)*; AEEA = NCCOCCOCC(=O)O; Aib = CC(C)(N)C(=O)O

Tests used:
[1] = target: T1, human GIP R (Homo sapiens, UniProt P48546); assay: cell-based
T1 sequence (P48546 22-466): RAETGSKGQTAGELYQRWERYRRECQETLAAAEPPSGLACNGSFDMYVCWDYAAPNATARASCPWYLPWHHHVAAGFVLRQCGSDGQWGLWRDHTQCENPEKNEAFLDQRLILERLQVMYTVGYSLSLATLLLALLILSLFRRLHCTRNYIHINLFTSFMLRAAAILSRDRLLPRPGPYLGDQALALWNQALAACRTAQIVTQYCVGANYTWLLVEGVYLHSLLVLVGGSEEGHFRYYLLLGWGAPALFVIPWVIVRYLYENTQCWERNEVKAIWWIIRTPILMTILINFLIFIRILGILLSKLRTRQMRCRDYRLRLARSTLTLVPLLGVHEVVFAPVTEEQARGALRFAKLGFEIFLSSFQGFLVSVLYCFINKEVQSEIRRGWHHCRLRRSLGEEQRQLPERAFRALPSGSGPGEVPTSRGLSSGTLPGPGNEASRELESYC

[2] = target: T2, human GIP receptor (GIP R) (Homo sapiens, UniProt P48546); assay: Activity assay at human GIP receptor, cAMP induction (AlphaScreen), Example 3
T2 sequence (P48546 22-466): T1 sequence (P48546 22-466)

| Compound | EC50 [1] [nM] | EC50 [2] [nM] |
| --- | --- | --- |
| CCCCCCCCCCCCCCCC(=O)N[C@@H](CCC(=O)NCCCC[C@H](NC(=O)[C@H](CCC(N)=O)NC(=O)[C@H](C)NC(=O)[C@H](CC(C)C)NC(=O)[C@H](CC(C)C)NC(=O)[C@H](Cc1c[nH]c2ccccc12)NC(=O)[C@H](CC(N)=O)NC(=O)[C@@H](NC(=O)[C@H](Cc1ccccc1)NC(=O)[C@H](CC(=O)O)NC(=O)[C@H](CCC(N)=O)NC(=O)[C@H](CCC(N)=O)NC(=O)[C@H](Cc1c[nH]cn1)NC(=O)[C@@H](NC(=O)[C@H](CCCCN)NC(=O)[C@H](CC(=O)O)NC(=O)[C@H](CC(C)C)NC(=O)[C@H](CCC(=O)O)NC(=O)[C@@H](NC(=O)[C@H](CO)NC(=O)[C@H](Cc1ccc(O)cc1)NC(=O)[C@H](CC(=O)O)NC(=O)[C@H](CO)NC(=O)[C@@H](NC(=O)[C@H](Cc1ccccc1)NC(=O)[C@@H](NC(=O)CNC(=O)[C@H](CCC(=O)O)NC(=O)C(C)(C)NC(=O)[C@@H](N)Cc1ccc(O)cc1)[C@@H](C)O)[C@@H](C)CC)[C@@H](C)CC)[C@@H](C)CC)C(C)C)C(N)=O)C(=O)O [Compound 6] (H-Y[Aib]EGTFISDYSIELDKIHQQDFVNWLLAQK([γGlu-Palmitoyl])-NH2) | 0.032 | 0.014 |
| CCCCCCCCCCCCCCCC(=O)N[C@@H](CCC(=O)NCCCC[C@H](NC(=O)[C@H](CC(=O)O)NC(=O)[C@H](CC(C)C)NC(=O)[C@H](CCC(=O)O)NC(=O)[C@@H](NC(=O)[C@H](CO)NC(=O)[C@H](Cc1ccc(O)cc1)NC(=O)[C@H](CC(=O)O)NC(=O)[C@H](CO)NC(=O)[C@@H](NC(=O)[C@H](Cc1ccccc1)NC(=O)[C@@H](NC(=O)CNC(=O)[C@H](CCC(=O)O)NC(=O)C(C)(C)NC(=O)[C@@H](N)Cc1ccc(O)cc1)[C@@H](C)O)[C@@H](C)CC)[C@@H](C)CC)C(=O)N[C@H](C(=O)N[C@@H](Cc1c[nH]cn1)C(=O)N[C@@H](CCC(N)=O)C(=O)N[C@@H](CCC(N)=O)C(=O)N[C@@H](CC(=O)O)C(=O)N[C@@H](Cc1ccccc1)C(=O)N[C@H](C(=O)N[C@@H](CC(N)=O)C(=O)N[C@@H](Cc1c[nH]c2ccccc12)C(=O)N[C@@H](CC(C)C)C(=O)N[C@@H](CC(C)C)C(=O)N[C@@H](C)C(=O)N[C@@H](CCC(N)=O)C(=O)NCC(=O)N1CCC[C@H]1C(=O)N[C@@H](CO)C(=O)N[C@@H](CO)C(=O)NCC(=O)N[C@@H](C)C(=O)N1CCC[C@H]1C(=O)N1CCC[C@H]1C(=O)N1CCC[C@H]1C(=O)N[C@@H](CO)C(N)=O)C(C)C)[C@@H](C)CC)C(=O)O [Compound 2] (H-Y[Aib]EGTFISDYSIELDK([γGlu-Palmitoyl])IHQQDFVNWLLAQGPSSGAPPPS-NH2) | 0.013 | 0.008 |
| CCCCCCCCCCCCCCCC(=O)N[C@@H](CCC(=O)NCCCC[C@H](NC(=O)[C@H](CCCCN)NC(=O)[C@H](CC(=O)O)NC(=O)[C@H](CC(C)C)NC(=O)[C@H](CCC(=O)O)NC(=O)[C@@H](NC(=O)[C@H](CO)NC(=O)[C@H](Cc1ccc(O)cc1)NC(=O)[C@H](CC(=O)O)NC(=O)[C@H](CO)NC(=O)[C@@H](NC(=O)[C@H](Cc1ccccc1)NC(=O)[C@@H](NC(=O)CNC(=O)[C@H](CCC(=O)O)NC(=O)C(C)(C)NC(=O)[C@@H](N)Cc1ccc(O)cc1)[C@@H](C)O)[C@@H](C)CC)[C@@H](C)CC)C(=O)N[C@@H](Cc1c[nH]cn1)C(=O)N[C@@H](CCC(N)=O)C(=O)N[C@@H](CCC(N)=O)C(=O)N[C@@H](CC(=O)O)C(=O)N[C@@H](Cc1ccccc1)C(=O)N[C@H](C(=O)N[C@@H](CC(N)=O)C(=O)N[C@@H](Cc1c[nH]c2ccccc12)C(=O)N[C@@H](CC(C)C)C(=O)N[C@@H](CC(C)C)C(=O)N[C@@H](C)C(=O)N[C@@H](CCC(N)=O)C(=O)NCC(=O)N1CCC[C@H]1C(=O)N[C@@H](CO)C(=O)N[C@@H](CO)C(=O)NCC(=O)N[C@@H](C)C(=O)N1CCC[C@H]1C(=O)N1CCC[C@H]1C(=O)N1CCC[C@H]1C(=O)N[C@@H](CO)C(N)=O)C(C)C)C(=O)O [Compound 1] (H-Y[Aib]EGTFISDYSIELDKK([γGlu-Palmitoyl])HQQDFVNWLLAQGPSSGAPPPS-NH2) | 0.008 |  |
| CCCCCCCCCCCCCCCC(=O)N[C@@H](CCC(=O)NCCCC[C@H](NC(=O)[C@H](CO)NC(=O)[C@@H]1CCCN1C(=O)[C@@H]1CCCN1C(=O)[C@@H]1CCCN1C(=O)[C@H](C)NC(=O)CNC(=O)[C@H](CO)NC(=O)[C@H](CO)NC(=O)[C@@H]1CCCN1C(=O)CNC(=O)[C@H](CCC(N)=O)NC(=O)[C@H](C)NC(=O)[C@H](CC(C)C)NC(=O)[C@H](CC(C)C)NC(=O)[C@H](Cc1c[nH]c2ccccc12)NC(=O)[C@H](CC(N)=O)NC(=O)[C@@H](NC(=O)[C@H](Cc1ccccc1)NC(=O)[C@H](CC(=O)O)NC(=O)[C@H](CCC(N)=O)NC(=O)[C@H](CCC(N)=O)NC(=O)[C@H](Cc1c[nH]cn1)NC(=O)[C@@H](NC(=O)[C@H](CCCCN)NC(=O)[C@H](CC(=O)O)NC(=O)[C@H](CC(C)C)NC(=O)[C@H](CCC(=O)O)NC(=O)[C@@H](NC(=O)[C@H](CO)NC(=O)[C@H](Cc1ccc(O)cc1)NC(=O)[C@H](CC(=O)O)NC(=O)[C@H](CO)NC(=O)[C@@H](NC(=O)[C@H](Cc1ccccc1)NC(=O)[C@@H](NC(=O)CNC(=O)[C@H](CCC(=O)O)NC(=O)C(C)(C)NC(=O)[C@@H](N)Cc1ccc(O)cc1)[C@@H](C)O)[C@@H](C)CC)[C@@H](C)CC)[C@@H](C)CC)C(C)C)C(N)=O)C(=O)O [Compound 5] (H-Y[Aib]EGTFISDYSIELDKIHQQDFVNWLLAQGPSSGAPPPSK([γGlu-Palmitoyl])-NH2) | 0.014 | 0.014 |
| CC[C@H](C)[C@H](NC(=O)[C@H](CCCCN)NC(=O)[C@H](CC(=O)O)NC(=O)[C@H](CC(C)C)NC(=O)[C@H](CCC(=O)O)NC(=O)[C@@H](NC(=O)[C@H](CO)NC(=O)[C@H](Cc1ccc(O)cc1)NC(=O)[C@H](CC(=O)O)NC(=O)[C@H](CO)NC(=O)[C@@H](NC(=O)[C@H](Cc1ccccc1)NC(=O)[C@@H](NC(=O)CNC(=O)[C@H](CCC(=O)O)NC(=O)C(C)(C)NC(=O)[C@@H](N)Cc1ccc(O)cc1)[C@@H](C)O)[C@@H](C)CC)[C@@H](C)CC)C(=O)N[C@@H](Cc1c[nH]cn1)C(=O)N[C@@H](CCC(N)=O)C(=O)N[C@@H](CCC(N)=O)C(=O)N[C@@H](CC(=O)O)C(=O)N[C@@H](Cc1ccccc1)C(=O)N[C@H](C(=O)N[C@@H](CC(N)=O)C(=O)N[C@@H](Cc1c[nH]c2ccccc12)C(=O)N[C@@H](CC(C)C)C(=O)N[C@@H](CC(C)C)C(=O)N[C@@H](C)C(=O)N[C@@H](CCC(N)=O)C(=O)NCC(=O)N1CCC[C@H]1C(=O)N[C@@H](CO)C(=O)N[C@@H](CO)C(=O)NCC(=O)N[C@@H](C)C(=O)N1CCC[C@H]1C(=O)N1CCC[C@H]1C(=O)N1CCC[C@H]1C(=O)N[C@@H](CO)C(=O)N[C@@H](CCCCNC(=O)COCCOCCNC(=O)COCCOCCNC(=O)CC[C@H](NC(=O)CCCCCCCCCCCCCCCCCCC(=O)O)C(=O)O)C(N)=O)C(C)C [Compound 4] (H-Y[Aib]EGTFISDYSIELDKIHQQDFVNWLLAQGPSSGAPPPSK([AEEA-AEEA-γGlu-C20 diacid])-NH2) | 0.013 | 0.014 |
| CCCCCCCCCCCCCCCC(=O)N[C@@H](CCC(=O)NCCCC[C@H](NC(=O)[C@H](CCCCN)NC(=O)[C@H](CCC(=O)O)NC(=O)[C@H](CC(C)C)NC(=O)[C@H](CCC(=O)O)NC(=O)[C@@H](NC(=O)[C@H](CO)NC(=O)[C@H](Cc1ccc(O)cc1)NC(=O)[C@H](CC(=O)O)NC(=O)[C@H](CO)NC(=O)[C@@H](NC(=O)[C@H](Cc1ccccc1)NC(=O)[C@@H](NC(=O)CNC(=O)[C@H](CCC(=O)O)NC(=O)C(C)(C)NC(=O)[C@@H](N)Cc1ccc(O)cc1)[C@@H](C)O)[C@@H](C)CC)[C@@H](C)CC)C(=O)N[C@@H](Cc1c[nH]cn1)C(=O)N[C@@H](CCC(N)=O)C(=O)N[C@@H](CCC(N)=O)C(=O)N[C@@H](CC(=O)O)C(=O)N[C@@H](Cc1ccccc1)C(=O)N[C@H](C(=O)N[C@@H](CC(N)=O)C(=O)N[C@@H](Cc1c[nH]c2ccccc12)C(=O)N[C@@H](CC(C)C)C(=O)N[C@@H](CC(C)C)C(=O)N[C@@H](C)C(=O)N[C@@H](CCC(N)=O)C(=O)NCC(=O)N1CCC[C@H]1C(=O)N[C@@H](CO)C(=O)N[C@@H](CO)C(=O)NCC(=O)N[C@@H](C)C(=O)N1CCC[C@H]1C(=O)N1CCC[C@H]1C(=O)N1CCC[C@H]1C(=O)N[C@@H](CO)C(N)=O)C(C)C)C(=O)O [Compound 3] (H-Y[Aib]EGTFISDYSIELEKK([γGlu-Palmitoyl])HQQDFVNWLLAQGPSSGAPPPS-NH2) | 0.014 | 0.014 |
| CCCCCCCCCCCCCCCC(=O)N[C@@H](CCC(=O)NCCCC[C@H](NC(=O)CNC(=O)[C@H](CCCCN)NC(=O)[C@H](CCC(N)=O)NC(=O)[C@H](C)NC(=O)[C@H](CC(C)C)NC(=O)[C@H](CC(C)C)NC(=O)[C@H](Cc1c[nH]c2ccccc12)NC(=O)[C@H](CC(N)=O)NC(=O)[C@@H](NC(=O)[C@H](Cc1ccccc1)NC(=O)[C@H](CC(=O)O)NC(=O)[C@H](CCC(N)=O)NC(=O)[C@H](CCC(N)=O)NC(=O)[C@H](Cc1c[nH]cn1)NC(=O)[C@@H](NC(=O)[C@H](CCCCN)NC(=O)[C@H](CC(=O)O)NC(=O)[C@H](CC(C)C)NC(=O)[C@H](CCC(=O)O)NC(=O)[C@@H](NC(=O)[C@H](CO)NC(=O)[C@H](Cc1ccc(O)cc1)NC(=O)[C@H](CC(=O)O)NC(=O)[C@H](CO)NC(=O)[C@@H](NC(=O)[C@H](Cc1ccccc1)NC(=O)[C@@H](NC(=O)CNC(=O)[C@H](CCC(=O)O)NC(=O)C(C)(C)NC(=O)[C@@H](N)Cc1ccc(O)cc1)[C@@H](C)O)[C@@H](C)CC)[C@@H](C)CC)[C@@H](C)CC)C(C)C)C(N)=O)C(=O)O [Compound 7] (H-Y[Aib]EGTFISDYSIELDKIHQQDFVNWLLAQKGK([γGlu-Palmitoyl])-NH2) |  | 0.032 |
